Experimental data from patent US10301288B2, “Kinase inhibitors” (Topivert Pharma Limited, priority 2013, dated 2019).
Like-named read-outs stand apart in the source and are kept apart here.

Assays:
PBMCs = assay: (i) Cell mitosis assay in PBMCs; format: cell-based; details: Homo sapiens, PBMC, 5 μg/mL
Description: PBMCs from healthy subjects are separated from whole blood (Quintiles, London, UK) using a density gradient (Histopaque®-1077, Sigma-Aldrich, Poole, UK). The PBMCs (3 million cells per sample) are subsequently treated with 2% PHA (Sigma-Aldrich, Poole, UK) for 48 hr, followed by a 20 hr exposure to varying concentrations of test compounds. At 2 hr before collection, PBMCs are treated with demecolcine (0.1 μg/mL; Invitrogen, Paisley, UK) to arrest cells in metaphase. […] Fluorescence is observed using an ATTUNE flow cytometer (Invitrogen, Paisley, UK), gating for lymphocytes.

CYP3A4 = CYP3A4 (Homo sapiens (Human), UniProt P08684); assay: CYP450 time-dependent inhibition, CYP3A4; format: in vitro ADME
Sequence of CYP3A4 (P08684 whole entry): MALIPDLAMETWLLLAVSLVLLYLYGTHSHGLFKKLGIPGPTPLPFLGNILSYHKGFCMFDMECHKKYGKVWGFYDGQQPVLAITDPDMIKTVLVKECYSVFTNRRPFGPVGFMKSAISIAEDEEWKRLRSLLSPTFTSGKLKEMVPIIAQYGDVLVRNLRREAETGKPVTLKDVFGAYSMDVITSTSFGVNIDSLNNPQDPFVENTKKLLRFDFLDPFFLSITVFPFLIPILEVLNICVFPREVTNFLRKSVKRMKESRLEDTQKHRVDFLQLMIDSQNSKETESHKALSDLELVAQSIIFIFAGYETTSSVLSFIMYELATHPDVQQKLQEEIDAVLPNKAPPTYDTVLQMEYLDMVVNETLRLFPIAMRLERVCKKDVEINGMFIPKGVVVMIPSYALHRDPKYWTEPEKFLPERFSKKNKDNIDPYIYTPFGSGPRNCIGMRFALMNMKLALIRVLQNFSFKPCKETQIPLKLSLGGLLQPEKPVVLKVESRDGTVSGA
Description: CYP450 time-dependent inhibition (TDI) assays were performed with test compound at six test concentrations, 0.062 μM to 15 μM (n=2). The test compounds was pre-incubated for 30 minutes with pooled human hepatic microsomes in 0.1 M Tris buffer, pH 7.4, at 37° C. in the presence of cofactor NADPH. A parallel series of incubations (n=2) were prepared with no pre-incubation. Probe substrates were then added (with additional cofactor) and further incubated for the times specified. Concentrations of probe substrates used in the incubations have been optimised to maintain first order reaction conditions.
Reactions were terminated with acetonitrile containing analytical internal standard (carbamazepine), samples then centrifuged to remove microsomal protein and analysed using optimised LC/MS-MS conditions. The MS data were normalised to internal standard and compared to the appropriate solvent controls to determine the amount of metabolite formed from the probe substrate relative to the “uninhibited” controls. The results are quoted as % inhibition.
Variation in probe turnover between plate wells means that inhibition values recorded below 10-15% may not be significant.

[1] = Chemical stability in solid form at 40° C. and 75% relative humidity; format: physicochemical
Description: The results of the study are reported in the table below (where chemical purity was assessed using HPLC).

[2] = Pharmacokinetics and colon distribution in mice; format: in vivo, male C57BL/6 mice; details: male, 5 mg/kg p.o.; for concentration at 1 h / concentration at 2 h / concentration at 4 h / concentration at 6 h / concentration at 8 h / concentration at 12 h / concentration at 24 h: po, mouse
Description: Blood samples (approximately 60 μL) were collected from retro orbital plexus such that the samples were obtained at 1, 2, 4, 6, 8, 12 and 24 hr. The blood samples were collected from a set of three mice at each time point in labelled micro centrifuge tube containing K2EDTA as anticoagulant. Plasma samples were separated by centrifugation at 4000 rpm for 10 min of whole blood and stored below −70° C. until bioanalysis. After collection of blood sample, animals were humanely euthanized by carbon dioxide asphyxiation to collect total colon tissues. The colons were flushed with cold phosphate buffer saline (pH 7.4) to remove contents. The total colon tissues were homogenized with cold phosphate buffer saline (pH 7.4) of twice the weight of colon tissue and stored below −70° C. Total volume was three times the total colon tissue weights. All samples were processed for analysis by protein precipitation using acetonitrile and analyzed with developed LC-MS/MS method (LLOQ: 2.02 ng/mL in plasma and 1.01 ng/mL in colon tissue). Pharmacokinetic parameters were calculated using the non-compartmental analysis tool of Phoenix WinNonlin® software (version 6.3).

[3] = Cryopreserved hepatocyte stability, dog; format: in vitro ADME; details: pooled cryopreserved hepatocytes, read-out: Mean intrinsic clearance
Description: Formulae Clint(tissue clearance) mL/min/kg=[0.693/t½ (min)]×[1/microsomal protein concentration mg/mL]×[mg microsomes/g liver]×[g liver/kg body weight] […] The incubations were performed at 37° C. with 100 μL, samples taken from the incubation, at 0, 10, 20, 45 and 90 minutes, and reactions terminated by addition of 100 μL of acetonitrile containing carbamazepine as analytical internal standard. […] Half-life values were calculated from the relationship T1/2 (min)=−0.693/λ • where λ was the slope of the Ln concentration vs time curve. • Standard compounds testosterone, midazolam and 4-methylumbelliferone are included in the assay design.
Clint(Tissue Clearance) mL/min/kg=[0.693/t½(min)]×[1/hepatocyte concentration (million cells/mL)]×[million cells/g liver]×[g liver/kg body weight] Clint(Hepatic clearance) mL/min/kg=hepatic blood flow×Clint/(hepatic blood flow+Clint) Hepatic extraction ratio(Eh)=Clint(Hepatic clearance) mL/min/kg/hepatic blood flow (mL/min/kg)

primary macrophages = assay: (e) LPS-induced cytokine release in primary macrophages; format: cell-based; details: Homo sapiens, Primary macrophage, assay (e)
Description: PBMCs from healthy subjects are separated from whole blood using a density gradient (Lymphoprep, Axis-Shield Healthcare). Cells are incubated for 2 hrs and non-adherent cells removed by washing. To differentiate the cells to macrophages the cells are incubated with 5 ng/ml of GM-CSF (Peprotech) for 7 days under normal tissue culture conditions. Compounds are then added to the cells at the desired concentration for a 2 hour pre-treatment before stimulation with 10 ng/ml LPS for 24 hours. […] The IC50 is determined from the dose response curve.

[4] = C57BL/6, colon, read-out: Mean concentration, Colon
[5] = C57BL/6, plasma, read-out: Mean concentration, Plasma
[6] = C57BL/6, po, Mouse, Total colon

C#Cc1cc(Nc2nccc(Oc3ccc(NC(=O)Nc4cc(C(C)(C)C)nn4-c4ccc(C)cc4)c4ccccc34)n2)cc(C(=O)NCCOCCOCCOC)c1 [Example 2, 3-((4-((4-(3-(3-(tert-Butyl)-1-(p-tolyl)-1H-pyrazol-5-yl)ureido)naphthalen-1-yl)oxy)pyrimidin-2-yl)amino)-5-ethynyl-N-(2-(2-(2-methoxyethoxy)ethoxy)ethyl)-benzamide]
inhibition at 5 µg/mL (PBMCs): 18.7%
IC50 (CYP3A4; CYP3A4, 0 min preincubation): > 15000 nM
IC50 (CYP3A4; CYP3A4, 30 min preincubation): 7700 nM
inhibition at 0 min, 15 µM (CYP3A4; human, pooled human liver microsomes, pH 7.4, CYP3A4, 0 min preincubation, 15 μM, read-out: 15 μM % Inh): 2%
inhibition at 30 min, 15 µM (CYP3A4; human, pooled human liver microsomes, pH 7.4, CYP3A4, 30 min preincubation, 15 μM, read-out: 15 μM % Inh): 52%
chemical purity (HPLC), solid form ([1]; 0 months): 98.52%
chemical purity (HPLC), solid form ([1]; 1 month, 40° C./75% RH): 96.88%
chemical purity (HPLC), solid form ([1]; 3 months, 40° C./75% RH): 94.32%
concentration at 1 h [2, 4]: 884 ng/g
concentration at 2 h [2, 4]: 2810 ng/g
concentration at 4 h [2, 4]: 4240 ng/g
concentration at 6 h [2, 4]: 1400 ng/g
concentration at 8 h [2, 4]: 13700 ng/g
concentration at 12 h [2, 4]: 7490 ng/g
concentration at 24 h [2, 4]: 31.6 ng/g
concentration at 1 h [2, 5]: 11.7 ng/mL
concentration at 2 h [2, 5]: 8.5 ng/mL
concentration at 4 h [2, 5]: 5.1 ng/mL
concentration at 6 h [2, 5]: 4.55 ng/mL
concentration at 8 h [2, 5]: 5.1 ng/mL
concentration at 12 h [2, 5]: 0 ng/mL
concentration at 24 h [2, 5]: 0 ng/mL
AUC(0-t) ([2]; C57BL/6, po, Mouse, Plasma): 0.049 µg·h/mL
Cmax ([2]; C57BL/6, po, Mouse, Plasma): 12 ng/mL
Tmax ([2]; C57BL/6, po, Mouse, Plasma): 1 h
AUC(0-inf) [2, 6]: 118 µg·h/mL
AUC(0-t) [2, 6]: 117 µg·h/mL
Cmax [2, 6]: 13700 ng/mL
Tmax [2, 6]: 8 h
hepatocyte CLint at 0.1 μM [3]: 46 µL/min/1e6 cells
IC50 (primary macrophages; read-out: IC50 for inhibition of release of IL-6): 2.8 nM
IC50 (primary macrophages; read-out: IC50 for inhibition of release of IL-8): 2.1 nM
